{"source": "paper PMC8667897", "about": "“Natural inspired piperine-based ureas and amides as novel antitumor agents towards breast cancer” (Journal of Enzyme Inhibition and Medicinal Chemistry, 2021)", "molecular_target": "T1, VEGFR-2 (Homo sapiens, UniProt P35968)", "T1 construct": "gene KDR", "T1 sequence (P35968 20-1356)": "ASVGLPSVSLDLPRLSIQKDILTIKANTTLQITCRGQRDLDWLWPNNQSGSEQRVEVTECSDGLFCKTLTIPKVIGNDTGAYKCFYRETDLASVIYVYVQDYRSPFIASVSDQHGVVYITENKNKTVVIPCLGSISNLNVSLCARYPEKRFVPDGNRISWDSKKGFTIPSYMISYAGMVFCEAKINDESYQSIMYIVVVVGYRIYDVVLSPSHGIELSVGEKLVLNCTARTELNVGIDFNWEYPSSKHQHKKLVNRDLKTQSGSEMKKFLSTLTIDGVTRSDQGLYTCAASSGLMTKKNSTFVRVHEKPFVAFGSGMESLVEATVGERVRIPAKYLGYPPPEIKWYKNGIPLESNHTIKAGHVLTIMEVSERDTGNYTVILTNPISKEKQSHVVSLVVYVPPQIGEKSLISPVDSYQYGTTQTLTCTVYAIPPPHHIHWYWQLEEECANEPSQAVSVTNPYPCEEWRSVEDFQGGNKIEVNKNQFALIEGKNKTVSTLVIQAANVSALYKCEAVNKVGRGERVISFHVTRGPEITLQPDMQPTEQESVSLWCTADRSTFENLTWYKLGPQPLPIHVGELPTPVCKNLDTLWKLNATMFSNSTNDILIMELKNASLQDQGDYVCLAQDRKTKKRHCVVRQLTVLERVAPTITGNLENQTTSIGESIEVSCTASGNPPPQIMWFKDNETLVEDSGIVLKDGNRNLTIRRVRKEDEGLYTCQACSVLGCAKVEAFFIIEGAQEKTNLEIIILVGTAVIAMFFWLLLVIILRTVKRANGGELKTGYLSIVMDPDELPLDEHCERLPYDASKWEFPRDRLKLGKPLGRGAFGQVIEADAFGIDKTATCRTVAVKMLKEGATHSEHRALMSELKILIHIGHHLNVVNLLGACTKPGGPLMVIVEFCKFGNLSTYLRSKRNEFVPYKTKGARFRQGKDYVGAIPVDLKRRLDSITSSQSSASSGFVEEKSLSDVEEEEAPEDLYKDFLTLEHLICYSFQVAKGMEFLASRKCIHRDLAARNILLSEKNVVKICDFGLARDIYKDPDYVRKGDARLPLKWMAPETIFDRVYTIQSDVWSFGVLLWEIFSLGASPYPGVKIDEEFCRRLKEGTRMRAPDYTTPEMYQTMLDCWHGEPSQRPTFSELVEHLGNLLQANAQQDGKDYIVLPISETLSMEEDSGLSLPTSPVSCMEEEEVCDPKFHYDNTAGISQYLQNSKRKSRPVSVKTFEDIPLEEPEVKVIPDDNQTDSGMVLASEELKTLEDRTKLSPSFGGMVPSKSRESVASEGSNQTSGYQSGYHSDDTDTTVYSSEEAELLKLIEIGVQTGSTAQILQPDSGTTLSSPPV", "assay": "in vitro VEGFR-2 enzyme inhibition assay", "type": "biochemical", "data": [{"smiles": "O=C(N/C=C/C=C/c1ccc2c(c1)OCO2)Nc1ccc(Cl)cc1", "note": "[8q, 1-((1E,3E)-4-(Benzo[d]1,3dioxol-5-yl)buta-1,3-dien-1-yl)-3–(4-chlorophenyl)urea]", "values": [{"measurement": "IC50", "result": "231 ± 5", "unit": "nM"}]}]}
